Literature values in patent US20020025341A1, “Controlled release formulation of divalproex sodium” (priority 1998, published 2002).
Where two headings read alike, the source gives them in different places.

Tests used:
[1] = patients consuming valproate

Row | SMILES | half life (in adults) | half life (in children) | free fraction (plasma protein binding) (plasma proteins; at 40 μg/ml) | free fraction (plasma protein binding) (plasma proteins; at 130 μg/ml) | patients affected by GI irritation [1]
1 | CCCC(CCC)C(=O)O [valproic acid, 2-Propylpentanoic acid] | between six and seventeen hours | between four and fourteen hours |  |  | 
2 | CCCC(CCC)C(=O)O [valproate] |  |  | approximately 10% | 18.5% | up to one third of patients
